# Literature values in patent US20080146525A1 (priority 2006, published 2008).
# Key:
# [1] = system: neurotransmitters; details: humans
# [2] = animal models and humans
# [3] = system: extra-cellular acetylcholine and dopamine levels; details: versus compositions commonly used to treat Alzheimer's disease; rats
# [4] = healthy adolescents
# [5] = administered orally
# [6] = system: nerve growth factor
# [7] = system: rats
smiles,measurement,setting,value
N[C@@H](Cc1ccc(O)cc1)C(=O)O [Tyrosine],neurotransmitters after oral administration,[1],increased of neurotransmitters
C/C=C1\[C@H]2C=C(C)C[C@]1(N)c1ccc(=O)[nH]c1C2 [Huperzine-A],effect on memory deficits,[2],improves memory deficits
same,ability to increase extra-cellular acetylcholine and dopamine levels,[3],greater ability to increase extra-cellular acetylcholine and dopamine levels
same,memory and learning,[4],improve memory and learning
same,bioavailability,[5],good bioavailability
same,amount of nerve growth factor,[6],increase the amount of nerve growth factor
CC(=C(CCOC(=O)C(C)C)SSC(CCOC(=O)C(C)C)=C(C)N(C=O)Cc1cnc(C)nc1N)N(C=O)Cc1cnc(C)nc1N (stereo in doubt) [Sulbutiamine],memory effect,[7],memory enhancing effects
